The text below walks through data of ChEMBL document CHEMBL3627608, “Crystal structures of human RIP2 kinase catalytic domain complexed with ATP-competitive inhibitors: Foundations for understanding inhibitor selectivity” (Bioorg Med Chem, 2015).

In experiment [1] the target is cAMP-dependent protein kinase catalytic subunit beta (Homo sapiens) (UniProt P22694). The experiment in a line: Inhibition of PKAcbeta (unknown origin) at 10 uM after 120 mins P33 radiolabeled kinase activity assay.
Experiment [2] deals with Glycogen synthase kinase-3 alpha (Homo sapiens) (UniProt P49840). The experiment in a line: Inhibition of GSK3alpha (unknown origin) at 10 uM after 120 mins P33 radiolabeled kinase activity assay.
Experiment [3] addresses Serine/threonine-protein kinase MRCK beta (Homo sapiens) (UniProt Q9Y5S2). As to the kind of experiment: Inhibition of MRCKbeta (unknown origin) at 10 uM after 120 mins P33 radiolabeled kinase activity assay.
For experiment [4], the target named is Interleukin-1 receptor-associated kinase 1 (Homo sapiens) (UniProt P51617). As to the kind of experiment: Inhibition of IRAK1 (unknown origin) at 10 uM after 120 mins P33 radiolabeled kinase activity assay.
The target of experiment [5] is Macrophage-stimulating protein receptor (Homo sapiens) (UniProt Q04912). The experiment in a line: Inhibition of RON (unknown origin) at 10 uM after 120 mins P33 radiolabeled kinase activity assay.
The target of experiment [6] is Serine/threonine-protein kinase 10 (Homo sapiens) (UniProt O94804). As to the kind of experiment: Inhibition of LOK (unknown origin) at 10 uM after 120 mins P33 radiolabeled kinase activity assay.
For experiment [7], the target named is Dual specificity protein kinase CLK1 (Homo sapiens) (UniProt P49759). The experiment in a line: Inhibition of CLK1 (unknown origin) at 10 uM after 120 mins P33 radiolabeled kinase activity assay.
Experiment [8] deals with Tyrosine-protein kinase Lck (Homo sapiens) (UniProt P06239). As to the kind of experiment: Inhibition of LCK (unknown origin) at 10 uM after 120 mins P33 radiolabeled kinase activity assay.
Experiment [9] concerns the target T1, Serine/threonine-protein kinase Sgk1 (Homo sapiens) (UniProt O00141).
T1 sequence (whole entry): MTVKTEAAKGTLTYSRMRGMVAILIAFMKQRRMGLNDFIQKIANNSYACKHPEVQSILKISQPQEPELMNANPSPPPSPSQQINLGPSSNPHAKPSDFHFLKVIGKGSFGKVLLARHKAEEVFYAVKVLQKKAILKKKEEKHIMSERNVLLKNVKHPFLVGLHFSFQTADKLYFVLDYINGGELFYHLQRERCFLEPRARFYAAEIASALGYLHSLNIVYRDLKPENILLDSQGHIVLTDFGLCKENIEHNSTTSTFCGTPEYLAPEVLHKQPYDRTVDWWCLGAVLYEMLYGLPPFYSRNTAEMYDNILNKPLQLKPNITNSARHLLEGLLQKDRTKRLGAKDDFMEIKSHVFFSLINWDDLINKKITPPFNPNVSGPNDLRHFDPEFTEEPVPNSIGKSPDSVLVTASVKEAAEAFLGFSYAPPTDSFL
The experiment in a line: Inhibition of SGK1 (unknown origin) at 10 uM after 120 mins P33 radiolabeled kinase activity assay.

Experiment [10] has as its target T2, 3-phosphoinositide-dependent protein kinase 1 (Homo sapiens) (UniProt O15530).
T2 sequence (whole entry): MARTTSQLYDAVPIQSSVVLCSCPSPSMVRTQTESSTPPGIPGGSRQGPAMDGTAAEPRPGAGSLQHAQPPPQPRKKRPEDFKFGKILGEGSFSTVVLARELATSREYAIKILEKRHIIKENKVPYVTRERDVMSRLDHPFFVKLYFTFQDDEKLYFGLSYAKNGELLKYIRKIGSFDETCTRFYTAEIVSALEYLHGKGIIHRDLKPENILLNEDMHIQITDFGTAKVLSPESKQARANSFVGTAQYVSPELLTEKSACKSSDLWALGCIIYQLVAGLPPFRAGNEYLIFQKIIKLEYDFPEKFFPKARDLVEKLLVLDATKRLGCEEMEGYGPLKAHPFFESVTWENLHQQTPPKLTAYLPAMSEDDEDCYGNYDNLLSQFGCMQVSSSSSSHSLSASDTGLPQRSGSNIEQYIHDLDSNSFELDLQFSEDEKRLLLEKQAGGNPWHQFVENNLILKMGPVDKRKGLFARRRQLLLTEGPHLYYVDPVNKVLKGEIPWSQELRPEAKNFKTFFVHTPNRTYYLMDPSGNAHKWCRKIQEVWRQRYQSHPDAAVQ
As to the kind of experiment: Inhibition of PDK1 (unknown origin) at 10 uM after 120 mins P33 radiolabeled kinase activity assay.

In experiment [11] the target is Tyrosine-protein kinase ABL1 (Homo sapiens) (UniProt P00519). As to the kind of experiment: Inhibition of ABL1 (unknown origin) at 10 uM after 120 mins P33 radiolabeled kinase activity assay.
Experiment [12] addresses Protein kinase C alpha type (Homo sapiens) (UniProt P17252). As to the kind of experiment: Inhibition of PKCalpha (unknown origin) at 10 uM after 120 mins P33 radiolabeled kinase activity assay.

Sequence of Glycogen synthase kinase-3 alpha (Homo sapiens) (P49840 2-483 limits assumed): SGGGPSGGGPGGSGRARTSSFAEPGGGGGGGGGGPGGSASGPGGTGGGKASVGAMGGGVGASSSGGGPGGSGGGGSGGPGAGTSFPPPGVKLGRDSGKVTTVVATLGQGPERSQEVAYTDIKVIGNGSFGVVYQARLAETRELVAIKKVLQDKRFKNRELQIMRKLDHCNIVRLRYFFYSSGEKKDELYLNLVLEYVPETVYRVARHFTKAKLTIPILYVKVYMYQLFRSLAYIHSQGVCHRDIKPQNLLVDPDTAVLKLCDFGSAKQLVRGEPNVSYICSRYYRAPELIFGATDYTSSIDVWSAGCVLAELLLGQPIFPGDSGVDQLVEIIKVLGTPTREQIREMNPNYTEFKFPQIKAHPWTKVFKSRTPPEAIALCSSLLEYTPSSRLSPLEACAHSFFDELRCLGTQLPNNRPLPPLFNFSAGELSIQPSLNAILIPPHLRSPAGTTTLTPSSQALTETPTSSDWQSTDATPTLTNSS
Sequence of Interleukin-1 receptor-associated kinase 1 (Homo sapiens) (P51617 whole entry, looked up): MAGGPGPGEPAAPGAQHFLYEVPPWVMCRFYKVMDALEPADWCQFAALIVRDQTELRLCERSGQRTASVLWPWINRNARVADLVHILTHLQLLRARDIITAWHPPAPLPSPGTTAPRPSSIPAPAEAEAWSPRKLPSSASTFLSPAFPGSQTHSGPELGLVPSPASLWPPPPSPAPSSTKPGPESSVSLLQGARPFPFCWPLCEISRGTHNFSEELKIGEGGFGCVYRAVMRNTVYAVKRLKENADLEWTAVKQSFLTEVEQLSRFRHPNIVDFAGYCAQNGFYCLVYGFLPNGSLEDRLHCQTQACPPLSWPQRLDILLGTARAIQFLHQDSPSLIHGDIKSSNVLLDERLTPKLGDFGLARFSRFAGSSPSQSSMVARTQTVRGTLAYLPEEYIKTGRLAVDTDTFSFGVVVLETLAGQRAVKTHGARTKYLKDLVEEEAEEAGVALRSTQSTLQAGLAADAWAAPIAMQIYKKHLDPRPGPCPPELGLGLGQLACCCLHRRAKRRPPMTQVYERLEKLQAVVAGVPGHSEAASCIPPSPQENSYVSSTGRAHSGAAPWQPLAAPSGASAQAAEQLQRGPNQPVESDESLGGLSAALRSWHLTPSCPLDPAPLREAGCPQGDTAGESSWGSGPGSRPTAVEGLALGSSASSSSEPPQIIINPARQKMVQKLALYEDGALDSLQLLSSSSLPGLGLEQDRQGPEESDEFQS
Sequence of Serine/threonine-protein kinase 10 (Homo sapiens) (O94804 whole entry, looked up): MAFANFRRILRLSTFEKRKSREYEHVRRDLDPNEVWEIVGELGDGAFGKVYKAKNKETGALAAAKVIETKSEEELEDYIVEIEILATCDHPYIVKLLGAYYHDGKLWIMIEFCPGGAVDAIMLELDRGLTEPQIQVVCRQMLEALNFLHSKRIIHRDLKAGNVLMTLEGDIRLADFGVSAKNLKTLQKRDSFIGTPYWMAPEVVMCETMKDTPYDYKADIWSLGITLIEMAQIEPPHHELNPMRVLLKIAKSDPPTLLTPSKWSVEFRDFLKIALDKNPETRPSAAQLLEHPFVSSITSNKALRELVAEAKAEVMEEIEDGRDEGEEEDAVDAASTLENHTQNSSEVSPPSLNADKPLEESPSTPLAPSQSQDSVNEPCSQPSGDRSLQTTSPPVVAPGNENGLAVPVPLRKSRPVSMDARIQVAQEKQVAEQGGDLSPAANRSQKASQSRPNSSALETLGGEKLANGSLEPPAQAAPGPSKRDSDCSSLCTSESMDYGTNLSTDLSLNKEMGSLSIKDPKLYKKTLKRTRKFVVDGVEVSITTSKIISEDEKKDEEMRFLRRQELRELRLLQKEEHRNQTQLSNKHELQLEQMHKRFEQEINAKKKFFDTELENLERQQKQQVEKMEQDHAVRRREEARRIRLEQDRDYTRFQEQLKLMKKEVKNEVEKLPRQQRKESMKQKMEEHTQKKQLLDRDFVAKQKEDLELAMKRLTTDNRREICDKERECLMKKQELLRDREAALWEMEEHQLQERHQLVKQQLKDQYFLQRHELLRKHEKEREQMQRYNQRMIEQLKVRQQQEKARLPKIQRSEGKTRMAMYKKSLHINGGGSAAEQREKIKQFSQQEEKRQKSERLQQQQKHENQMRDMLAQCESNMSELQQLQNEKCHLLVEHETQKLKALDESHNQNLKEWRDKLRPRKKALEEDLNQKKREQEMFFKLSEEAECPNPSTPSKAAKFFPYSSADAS
Sequence of Tyrosine-protein kinase Lck (Homo sapiens) (P06239 2-509 limits assumed): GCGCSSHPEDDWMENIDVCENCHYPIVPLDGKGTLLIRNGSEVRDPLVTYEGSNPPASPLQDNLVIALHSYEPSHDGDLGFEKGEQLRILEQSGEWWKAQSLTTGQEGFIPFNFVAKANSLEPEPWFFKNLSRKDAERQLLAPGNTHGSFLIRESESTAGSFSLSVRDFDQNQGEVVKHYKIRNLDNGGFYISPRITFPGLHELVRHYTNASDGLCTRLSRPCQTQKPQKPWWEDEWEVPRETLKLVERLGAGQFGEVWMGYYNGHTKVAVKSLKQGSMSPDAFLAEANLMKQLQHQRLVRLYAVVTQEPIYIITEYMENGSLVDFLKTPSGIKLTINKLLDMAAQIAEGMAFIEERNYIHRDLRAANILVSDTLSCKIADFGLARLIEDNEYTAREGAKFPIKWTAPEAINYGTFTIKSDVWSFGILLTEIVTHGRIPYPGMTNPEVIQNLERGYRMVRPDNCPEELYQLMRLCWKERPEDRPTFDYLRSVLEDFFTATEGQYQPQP
Sequence of Macrophage-stimulating protein receptor (Homo sapiens) (Q04912 25-304 limits assumed): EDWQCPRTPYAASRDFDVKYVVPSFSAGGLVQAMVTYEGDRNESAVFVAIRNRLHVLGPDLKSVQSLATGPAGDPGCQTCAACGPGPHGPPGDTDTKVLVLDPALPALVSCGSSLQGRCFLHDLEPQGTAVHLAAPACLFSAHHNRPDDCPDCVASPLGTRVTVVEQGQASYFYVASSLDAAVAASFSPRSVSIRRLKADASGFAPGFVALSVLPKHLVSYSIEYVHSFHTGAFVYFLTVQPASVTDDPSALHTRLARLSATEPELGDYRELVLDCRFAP
Sequence of Macrophage-stimulating protein receptor (Homo sapiens) (Q04912 310-1400 limits assumed): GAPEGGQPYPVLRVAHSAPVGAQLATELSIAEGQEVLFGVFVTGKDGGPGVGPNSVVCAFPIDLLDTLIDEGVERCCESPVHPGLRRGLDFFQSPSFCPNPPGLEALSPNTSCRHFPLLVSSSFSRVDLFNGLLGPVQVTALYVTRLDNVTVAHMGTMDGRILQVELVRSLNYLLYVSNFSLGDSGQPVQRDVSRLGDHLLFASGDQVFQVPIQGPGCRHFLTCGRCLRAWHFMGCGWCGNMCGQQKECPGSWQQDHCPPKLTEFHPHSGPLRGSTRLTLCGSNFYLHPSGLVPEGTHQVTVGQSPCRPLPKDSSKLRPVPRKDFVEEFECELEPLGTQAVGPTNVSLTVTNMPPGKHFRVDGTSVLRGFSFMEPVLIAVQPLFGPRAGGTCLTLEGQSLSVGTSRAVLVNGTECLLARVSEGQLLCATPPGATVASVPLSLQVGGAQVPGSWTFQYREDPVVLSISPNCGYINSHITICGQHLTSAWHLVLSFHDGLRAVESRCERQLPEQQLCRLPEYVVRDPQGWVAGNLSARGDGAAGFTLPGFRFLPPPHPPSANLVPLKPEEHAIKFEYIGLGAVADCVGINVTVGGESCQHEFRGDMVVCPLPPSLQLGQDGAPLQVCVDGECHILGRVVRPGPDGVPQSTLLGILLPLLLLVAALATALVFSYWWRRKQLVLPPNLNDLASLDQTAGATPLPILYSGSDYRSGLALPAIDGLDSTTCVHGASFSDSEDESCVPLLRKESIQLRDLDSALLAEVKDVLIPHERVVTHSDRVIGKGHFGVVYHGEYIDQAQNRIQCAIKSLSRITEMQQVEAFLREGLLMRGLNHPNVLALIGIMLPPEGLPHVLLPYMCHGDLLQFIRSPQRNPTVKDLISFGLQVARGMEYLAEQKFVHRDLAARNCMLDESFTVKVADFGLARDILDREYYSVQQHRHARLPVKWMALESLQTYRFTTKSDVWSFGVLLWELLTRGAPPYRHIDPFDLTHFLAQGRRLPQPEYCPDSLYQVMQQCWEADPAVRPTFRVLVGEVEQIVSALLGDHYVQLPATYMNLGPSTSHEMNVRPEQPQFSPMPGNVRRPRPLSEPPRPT

As to `CS(=O)(=O)c1cccc(Nc2nccc(-c3sc(N4CCOCC4)nc3-c3cccc(NS(=O)(=O)c4c(F)cccc4F)c3)n2)c1`, the inhibition – broadly, the drop in the measured response relative to a control, in per cent – was -0.07% in [1]; 98.9% in experiment [2]; 14.4% in [3]; 27.6% in experiment [4]; 18.7% in [5]; 74.8% in experiment [6]. The inhibition was 14.1% in experiment [7]; 99.9% in experiment [8]; 30.1% in experiment [9]; 7.26% in experiment [10]; 98.1% in [11]; -5.32% in experiment [12].
Regarding `CC(C)(C)c1cc(NC(=O)Nc2ccc(Oc3ccncc3)cc2)no1`, the inhibition is 55.2% in experiment [1]; 37.8% in experiment [2]; 16.5% in experiment [3]; 99.1% in [4]; 70.6% in [5]; 92.8% in experiment [6]. The inhibition in [7] was 50.7%; in experiment [8], 95.3%; in experiment [9] it was 1.68%; in experiment [10], 8.32%; in [11], 88.4%; in [12] it was -7.51%.
For `COCCNC(=O)c1ccc2c(c1)nc(-c1cnc(-c3ccc(Cl)cc3)[nH]1)n2CCOC`, the inhibition in experiment [1] was -0.18%; in experiment [2] it was 5.43%; in [3], 11.1%; in [4], 5.62%; in experiment [5], 1.69%; in [6] it was 28.4%. For the same compound, the inhibition in experiment [7] was 13.4%; in experiment [8], 52.8%; in experiment [9] it was 10.1%; in [10] it was 4.43%; in experiment [11] it was 65.6%; in experiment [12] it was -4.59%.
